Test results taken from patent US7402688B2, “2,2-Di-substituted 1alpha,25-dihydroxy-19-norvitamin D derivative” (Wisconsin Alumni Research Foundation, priority 2002, dated 2008).

target: T1, vitamin D receptor (VDR) (Bos taurus, UniProt Q28037); assay: Binding assay for calf thymus vitamin D receptor (VDR); settings: relative to 1α,25-dihydroxyvitamin D3 = 1; ratio of concentrations for 50% inhibition of [3H]-1α,25-dihydroxyvitamin D3 binding to calf thymus VDR
T1 construct: vitamin D receptor (VDR) derived from calf thymus was evaluated; purchased Yamasa Shoyu Co., Ltd. (Choshi, Chiba, Japan) Lot; No. 111931; host or cells: calf thymus (tissue preparation)
T1 sequence (Q28037 1-426): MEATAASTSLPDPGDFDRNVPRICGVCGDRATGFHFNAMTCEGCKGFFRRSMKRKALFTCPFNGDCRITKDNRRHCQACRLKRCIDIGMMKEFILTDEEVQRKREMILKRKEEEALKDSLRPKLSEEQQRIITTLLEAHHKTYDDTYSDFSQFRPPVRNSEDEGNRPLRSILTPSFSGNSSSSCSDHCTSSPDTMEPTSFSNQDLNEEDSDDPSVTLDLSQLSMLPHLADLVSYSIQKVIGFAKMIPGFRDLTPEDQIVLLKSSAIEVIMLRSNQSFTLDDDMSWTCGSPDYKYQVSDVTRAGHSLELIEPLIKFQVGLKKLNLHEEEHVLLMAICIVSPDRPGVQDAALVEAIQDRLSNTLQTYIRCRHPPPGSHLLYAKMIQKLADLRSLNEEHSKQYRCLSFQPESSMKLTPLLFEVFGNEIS
Protocol: Binding Assay for Calf Thymus Vitamin D Receptor (VDR)
The binding ability of the compounds of the present inventions described in the above Examples to vitamin D receptor (VDR) derived from calf thymus was evaluated.
The binding assay was carried out according to the manufacturer's instruction of Yamasa Shoyu Co., Ltd. as follows.
An EtOH solution (sample) containing an increasing amount of each 1α,25-dihydroxyvitamin D3 (as a standard reference material), and Compounds YI-1a, YI-1b, YI-2a, YI-3a, YI-3b, YI-4a, YI-4b, YI-5a, YI-5b, 20-Epi-YI-1a, 20-Epi-YI-1b, 20-Epi-YI-2a, 20-Epi-YI-3a, 20-Epi-YI-4a, 20-Epi-YI-4b, 20-Epi-YI-5a, 20-Epi-YI-5b, 20-Epi-YI-6a, 20-Epi-YI-6b, 20-Epi-YI-7a, 20-Epi-YI-7b, 20-Epi-YI-8a, and 20-Epi-YI-8b was prepared, that is, dilution series were prepared wherein final concentrations of each compounds in a mixture, which is prepared by following step, of receptor solutions, samples, and [^3H]-1α,25-dihydroxyvitamin D3 solutions are 100 nM, 30 nM 10 nM, 1 nM, 300 pM, 100 pM, 30 pM, 10 pM, 3 pM, and 1 pM.
Freeze-dried calf thymus vitamin D receptors (Lot. No. 111931) were purchased from Yamasa Shoyu Co., Ltd. (Choshi, Chiba, Japan) and were dissolved in 45 mL of phosphate buffer (0.3 M KCl, 0.05 M K2HPO4—KH2PO4, pH 7.4) just before use to use as a receptor solution.
50 μL of sample of Compounds YI-1a, YI-1b, YI-2a, YI-3a, YI-3b, YI-4a, YI-4b, YI-5a, YI-5b, 20-Epi-YI-1a, 20-Epi-YI-1b, 20-Epi-YI-2a, 20-Epi-YI-3a, 20-Epi-YI-4a, 20-Epi-YI-4b, 20-Epi-YI-5a, 20-Epi-YI-5b, 20-Epi-YI-6a, 20-Epi-YI-6b, 20-Epi-YI-7a, 20-EPi-YI-7b, 20-Epi-YI-8a, 20-Epi-YI-8b, or 1α,25-dihydroxyvitamin D3 and 500 μL of the receptor solution were pipetted into glass culture tubes. The mixture was vortexed 2-3 times, and incubated for 1 h at room temperature. To each tubes, [^3H]-1α,25-dihydroxyvitamin D3 (ca. 10000 dpm) in 50 μL of EtOH was added, the mixture was vortexed 2-3 times, and the whole mixture was incubated for 18 h at 4° C. (in a refrigerator). Then, 200 μL of DCC (dextran-coated charcoal; purchased from Yamasa Shoyu) was added to each tubes, and allowed to stand for 30 min at 4° C. Bound and free [^3]-1α,25-dihydroxyvitamin D3 were separated by centrifugation at 3000 rpm for 15 min at 4° C. Aliquots (500 μL) of the supernatant were put into vial bottles from each tube, and were mixed with 10 mL of ACS-II fluid scintillator (Amersham, Buckinghamshire, U.K.) and submitted for radioactivity counting.
The relative binding affinity of the vitamin D derivatives of the present inventions to VDR was calculated regarding binding affinity of 1α,25-dihydroxyvitamin D3 to VDR as 1. The following equation was used to calculate the relative VDR binding affinity: X=y/x
X: the relative binding affinity of the compound of the present inventions to VDR
y: the concentration of 1α,25-dihydroxyvitamin D3 required for 50% inhibition of binding [^3H]-1α,25-dihydroxyvitamin D3 to VDR
x: the concentration of the compound of the present inventions required for 50% inhibition of binding [^3H]-1α,25-dihydroxyvitamin D3 to VDR

| Structure (SMILES) | VDR affinity (relative binding affinity X=y/x) |
| --- | --- |
| C[C@@H](CCCC(C)(C)O)C1CCC2/C(=C/C=C3C[C@@H](O)C(OCCO)[C@H](O)C3)CCCC21C (single isomer, unassigned) [Compound 20-Epi-YI-6a] | 1 |
| C[C@@H](CCCC(C)(C)O)C1CCC2/C(=C/C=C3C[C@@H](O)C(OCCO)[C@H](O)C3)CCCC21C (single isomer, unassigned) [Compound 20-Epi-YI-6b] | 5 |
| C[C@@H](CCCC(C)(C)O)C1CCC2/C(=C/C=C3C[C@@H](O)C4(CO4)[C@H](O)C3)CCCC21C (stereo partly drawn) [Compound 20-Epi-YI-1a, (20S)-1α,25-dihydroxy-2β,2′-epoxy-19-norvitamin D3] | 1/2 |
| C[C@@H](CCCC(C)(C)O)C1CCC2/C(=C/C=C3C[C@@H](O)C4(CO4)[C@H](O)C3)CCCC21C (stereo partly drawn) [Compound 20-Epi-YI-1b, (20S)-1α,25-dihydroxy-2α,2′-epoxy-19-norvitamin D3] | 1/5 |
| C[C@@H](CCCC(C)(C)O)C1CCC2/C(=C/C=C3C[C@@H](O)C(O)(CF)[C@H](O)C3)CCCC21C (stereo partly drawn) [Compound 20-Epi-YI-2a, (20S)-1α,2β,25-trihydroxy-2α-fluoromethyl-19-norvitamin D3] | 2 |
| C[C@@H](CCCC(C)(C)O)C1CCC2/C(=C/C=C3C[C@@H](O)C(C)(O)[C@H](O)C3)CCCC21C (stereo partly drawn) [Compound 20-Epi-YI-3a, (20S)-1α,2β,25-trihydroxy-2α-methyl-19-norvitamin D3] | 1 |
| CCC1(O)[C@H](O)CC(=C/C=C2\CCCC3(C)C2CCC3[C@@H](C)CCCC(C)(C)O)C[C@H]1O (stereo partly drawn) [Compound 20-Epi-YI-4a, (20S)-1α,2β,25-trihydroxy-2α-ethyl-19-norvitamin D3] | 1/20 |
| CCC1(O)[C@H](O)CC(=C/C=C2\CCCC3(C)C2CCC3[C@@H](C)CCCC(C)(C)O)C[C@H]1O (stereo partly drawn) [Compound 20-Epi-YI-4b, (20S)-1α,2α,25-trihydroxy-2β-ethyl-19-norvitamin D3] | 1/1000 |
| COCC1(O)[C@H](O)CC(=C/C=C2\CCCC3(C)C2CCC3[C@@H](C)CCCC(C)(C)O)C[C@H]1O (stereo partly drawn) [Compound 20-Epi-YI-5a, (20S)-1α,2β,25-trihydroxy-2α-methoxymethyl-19-norvitamin D3] | 1/5 |
| COCC1(O)[C@H](O)CC(=C/C=C2\CCCC3(C)C2CCC3[C@@H](C)CCCC(C)(C)O)C[C@H]1O (stereo partly drawn) [Compound 20-Epi-YI-5b, (20S)-1α,2α,25-trihydroxy-2β-methoxymethyl-19-norvitamin D3] | 1/10 |
| C[C@@H](CCCC(C)(C)O)C1CCC2/C(=C/C=C3C[C@@H](O)C(CCO)[C@H](O)C3)CCCC21C (stereo partly drawn) [Compound 20-Epi-YI-7a] | 1 |
| C[C@@H](CCCC(C)(C)O)C1CCC2/C(=C/C=C3C[C@@H](O)C(CCO)[C@H](O)C3)CCCC21C (stereo partly drawn) [Compound 20-Epi-YI-7b] | 1/5 |
| C[C@@H](CCCC(C)(C)O)C1CCC2/C(=C/C=C3C[C@@H](O)C(=CCO)[C@H](O)C3)CCCC21C (stereo partly drawn) [Compound 20-Epi-YI-8a] | 1.6 |
| C[C@@H](CCCC(C)(C)O)C1CCC2/C(=C/C=C3C[C@@H](O)C(=CCO)[C@H](O)C3)CCCC21C (stereo partly drawn) [Compound 20-Epi-YI-8b, (20S)-1α,25-dihydroxy-2-[2-(hydroxyl)-ethylidene]-19-norvitamin D3] | 1/50 |
| C[C@H](CCCC(C)(C)O)C1CCC2/C(=C/C=C3C[C@@H](O)C4(CO4)[C@H](O)C3)CCCC21C (stereo partly drawn) [YI-1a, 1α,25-dihydroxy-2β,2′-epoxy-19-norvitamin D3] | 1/23 |
| C[C@H](CCCC(C)(C)O)C1CCC2/C(=C/C=C3C[C@@H](O)C4(CO4)[C@H](O)C3)CCCC21C (stereo partly drawn) [YI-1b, 1α,25-dihydroxy-2α,2′-epoxy-19-norvitamin D3] | 1/290 |
| C[C@H](CCCC(C)(C)O)C1CCC2/C(=C/C=C3C[C@@H](O)C(O)(CF)[C@H](O)C3)CCCC21C (stereo partly drawn) [YI-2a, 1α,2β,25-trihydroxy-2α-fluoromethyl-19-norvitamin D3] | 1/43 |
| C[C@H](CCCC(C)(C)O)C1CCC2/C(=C/C=C3C[C@@H](O)C(C)(O)[C@H](O)C3)CCCC21C (stereo partly drawn) [YI-3a, 1α,2β,25-trihydroxy-2α-methyl-19-norvitamin D3] | 1/3 |
| C[C@H](CCCC(C)(C)O)C1CCC2/C(=C/C=C3C[C@@H](O)C(C)(O)[C@H](O)C3)CCCC21C (stereo partly drawn) [YI-3b, 1α,2α,25-trihydroxy-2β-methyl-19-norvitamin D3] | 1/730 |
| CCC1(O)[C@H](O)CC(=C/C=C2\CCCC3(C)C2CCC3[C@H](C)CCCC(C)(C)O)C[C@H]1O (stereo partly drawn) [YI-4a, 1α,2β,25-trihydroxy-2α-ethyl-19-norvitamin D3] | 1/50 |
| CCC1(O)[C@H](O)CC(=C/C=C2\CCCC3(C)C2CCC3[C@H](C)CCCC(C)(C)O)C[C@H]1O (stereo partly drawn) [YI-4b, 1α,2α,25-trihydroxy-2β-ethyl-19-norvitamin D3] | 1/2000 |
| COCC1(O)[C@H](O)CC(=C/C=C2\CCCC3(C)C2CCC3[C@H](C)CCCC(C)(C)O)C[C@H]1O (stereo partly drawn) [YI-5a, 1α,2β,25-trihydroxy-2α-methoxymethyl-19-norvitamin D3] | 1/26 |
| COCC1(O)[C@H](O)CC(=C/C=C2\CCCC3(C)C2CCC3[C@H](C)CCCC(C)(C)O)C[C@H]1O (stereo partly drawn) [YI-5b, 1α,2α,25-trihydroxy-2β-methoxymethyl-19-norvitamin D3] | 1/820 |

system: cellular differentiation; assay: not given; settings: compared with 1,25-(OH)2D3; cited from earlier work

| Structure (SMILES) | cellular effects |
| --- | --- |
| C[C@H](CCCC(C)(C)O)[C@H]1CC[C@H]2/C(=C/C=C3C[C@@H](O)C[C@H](O)C3)CCC[C@]12C [19-nor-1,25-(OH)2D3, 19-nor-1α,25-dihydroxyvitamin D3] | equivalent to 1,25-(OH)2D3 |
